From US20090233973A1, “EPOTHILONE DERIVATIVES FOR THE TREATMENT OF MULTIPLE MYELOMA” (priority 2002, published 2009) come the findings set out here.

Each structure is given as a SMILES string.

Type in all cases: cell-based, human
In test [1] the test system is MM cells. Description: Cell cycle analysis (propidium iodide, flow cytometry). On the procedure: MM cells (1×10^6 cells) are cultured in the presence of Epothilone B or DMSO control for 24, 48 and 72 h. Cells are then washed with phosphate buffered saline (PBS), fixed with 70% ethanol, and treated with RNAse (Sigma). Cells are next stained with propidium iodide (PI, 5 μg/mL), and the cell cycle profile is determined using the M software on an Epics flow cytometer (Coulter Immunology, Hialeah, Fla.).
(A flow cytometer gives signals particle by particle.)

A further test relates to MM.1S cells. The test is described as follows: Proliferation of MM cells in a modified Boyden chamber transwell co-culture system with BMSCs. Conditions: 48 h. On the procedure: Proliferation is measured in a modified Boyden chamber transwell system, using 24-well plates with a […] pore size inserts (Costar). BMSCs (4×10^4 cells/well) are plated in the lower chamber, starved, and incubated in an epothilone as described above. MM cells (20×10^4 cells/ml) are then placed in the upper chamber (insert), and [^3H]-thymidine uptake in the individual chambers is measured at 48 h as described above.
MM.1S cells are placed in the upper chamber of a transwell co-culture system in order to preclude direct contact between MM cells and BMSCs, but nonetheless allow for diffusion of humoral factors. Despite the lack of contact between the two cell types, uptake of [^3H]-dT by MM.1S cells incubated with BMSCs is increased by 2.2-fold (p<0.0001) at 48 h.

Test [2] concerns MM cells. Description: Proliferation ([3H]-thymidine) and cell viability (MTS) assays. On the procedure: RPMI 8226 and U266 human MM cell lines can be obtained from the American Type Culture Collection (ATCC) of Rockville, Md. Patient derived MM cells are purified from patient BM samples, as described by Y. T. Tai, G. Teoh, Y. Shima, et al in J. Immunol. Methods 235:11, 2000. All human MM cell lines are cultured in RPMI-1640 media (Sigma Chemical, St. Louis, Mo.), containing 10% fetal bovine serum (FBS), 2 mmol/L L-glutamine (L-glut, GIBCO, Grand Island, N.Y.), 100 U/mL penicillin and […] streptomycin (P/S, GIBCO). MM patient cells are >95% CD38+, CD45RA−. […]
MM cells are first starved for 12 h in RPMI-1640 media containing […], and then plated into 96-well microtiter plates (Costar, Cambridge, Mass.), in the presence of drug or DMSO control. […] Proliferation is measured by the incorporation of [^3H]-thymidine (NEN Products, Boston, Mass.). Specifically, cells are pulsed with [^3H]-thymidine (0.5 μCi/well) for the last 6 h of 48 h cultures, harvested onto glass filters with an automatic cell harvester (Cambridge Technology, Cambridge, Mass.), and counted using a LKB Betaplate scintillation counter (Wallac, Gaithersburg, Md.). […] Cells are exposed to the MTS for the last 2 h of 48 h cultures, and absorbance is measured using an ELISA plate reader (Molecular Devices Corp., Sunnyvale, Calif.) at OD of 570 nm.

Take `C/C(=C\c1csc(C)n1)[C@@H]1C[C@@H]2O[C@]2(C)CCC[C@H](C)[C@H](O)[C@@H](C)C(=O)C(C)(C)[C@@H](O)CC(=O)O1` [epothilone B]: the “cell cycle effect / apoptosis” value with MM cells [1] was “induces G2M arrest in MM cells with subsequent apoptosis”. In addition, the “proliferation of MM.1S cells ([3H]-dT uptake)” value in the test on MM.1S cells was “reduces proliferation of MM.1S cells”. In the test with MM cells [2], the “growth and survival of myeloma cells” value was “directly inhibit the growth and survival of myeloma cells”.
